Source: patent US20240066086A1, “Topical Hyperpigmentation Compositions and Method of Use” (Allergan Sales, LLC, priority 2022, published 2024)

Legend:
Format in all cases: cell-based
[1] = test system: human melanoma cell line MNT-1 cells; test: in vitro melanogenesis / melanin production in MNT-1 cells
Method: In the MNT-1 cell in vitro tests, neferine and liensinine reduced melanin production after seven days by at least 50%, 60%, 70%, 80% or greater at concentrations ranging from 0.1 μM to 5 μM.

primary human melanocyes = test: in vitro melanogenesis in primary melanocytes
[2] = test system: 3-D dark pigmented epidermis model Melanoderm™ MEL0300B tissue; test: in vitro melanogenesis in 3-D pigmented epidermis model

Measured: inhibition of melanogenesis

COc1cc2c(cc1OC)[C@@H](Cc1ccc(O)c(Oc3cc4c(cc3OC)CCN(C)[C@@H]4Cc3ccc(O)cc3)c1)N(C)CC2 [liensinine]
significantly inhibit melanogenesis: all assays above

COc1ccc(C[C@@H]2c3cc(Oc4cc(C[C@@H]5c6cc(OC)c(OC)cc6CCN5C)ccc4O)c(OC)cc3CCN2C)cc1 [Neferine, neferine]
significantly inhibit melanogenesis: all assays above
